In patent US9914910B2, “Methods of preserving and protecting pancreatic beta cells and treating or preventing diabetes by inhibiting NOX-1” (Eastern Virginia Medical School, priority 2013, dated 2018):

Columns and labels:
INS-1 cells = assay: ROS measurement (DCF-DA) after pro-inflammatory cytokine cocktail (PIC); assay type: cell-based, rat
Procedure: INS-1 cells were cultured in RPMI-1640 media (Life Technologies, Grand Island, N.Y.) supplemented with 10% fetal calf serum, 1% penicillin/streptomycin, 10 mM Hepes, 2 mM Lglutamine, 1 mM sodium pyruvate, and 0.05 mM 2-mercaptoethanol at 370 C with 5% CO2.
(§1) Cells treated for 1 hour were then washed with PBS prior to addition of 10 μM 6-Carboxy-2′,7′-Dichlorodihydrofluorescein Diacetate, Di(Acetoxymethyl ester) (DCF-DA, Life Technologies) for 30 min at 370 C. Post PBS wash cells were incubated at 370 C for 1 hour. Prior to fluorescence measurement (SpectraMax Molecular Devices, Sunnyvale, Calif.) at excitation 480 nm: emission 530 nm.
(§2) Elevation of cellular ROS in beta-cell lines INS-1 (rat beta-cell line) and βTC-3 (mouse beta-cell line) was evaluated by conversion of fluorescent substrate DCF-DA. Following one hour stimulation with a pro-inflammatory cytokine cocktail (PIC; IL-1β, TNF-α, and IFN-γ) detectable ROS elevated from control levels of 0.05±0.02 and 0.09±0.03 (INS-1 and βTC-3 respectively) to 0.25±0.04 and 0.23±0.03 (INS-1 and βTC-3 respectively). This increase was significant p<0.05 and p<0.01 (INS-1 and βTC-3 respectively).

βTC-3 cells [1] = assay: ROS measurement (DCF-DA) after PIC; assay type: cell-based, mouse; conditions: βTC-3, PIC 1 hour
Procedure: βTC-3 cells were cultured in DMEM media (Life Technologies, Grand Island, N.Y.) supplemented with 18% fetal calf serum, 1% penicillin/streptomycin, 4 mM L-glutamine, 5.5 mM glucose, and 1 mM sodium pyruvate at 370 C with 5% CO2.
as §1, §2

[2] = tested on: NOX-1 gene expression in βTC-3 cells; assay: PIC-induced NOX-1 gene expression (RT-PCR); assay type: cell-based, mouse; conditions: βTC-3, PIC 24 hours
Procedure: Total RNA was isolated using the RNeasy Mini Kit (Qiagen, Valencia, Calif.) and cDNA prepared using MMLV reverse transcriptase (Life Technologies) and random hexamers (Life Technologies). Jump Start Taq polymerase (Life Technologies) was used in PCR reactions. […] RT-PCR reactions were performed in triplicate (CFX96 Bio-Rad, Hercules, Calif.). Taqman primers (Life Technologies) were also used. Data was normalized to the housekeeping gene GAPDH and analyzed using the 2-ΔΔCT method.

[3] = tested on: NOX-1 gene expression in primary mouse islets; assay: PIC-induced NOX-1 gene expression (RT-PCR); assay type: cell-based
Description: Human donor islets were obtained from integrated islet distribution project (http://iidp.coh.org) and cultured in CMRL media (Mediatech, Manassas, Va.). Mouse islets were freshly isolated from 8-week old male C57BL/6J mice (Jackson Laboratory, Bar Harbor, Me.) by common bile duct cannulation and collagenase digestion. Islets were hand picked prior to use. […] Total RNA was isolated using the RNeasy Mini Kit (Qiagen, Valencia, Calif.) and cDNA prepared using MMLV reverse transcriptase (Life Technologies) and random hexamers (Life Technologies). Jump Start Taq polymerase (Life Technologies) was used in PCR reactions. Primers used with SYBR Green 1 (Molecular Probes, Carlsbad, Calif.) probes: […] GAPDH forward [NT] ID NO: 3); GAPDH reverse [NT] NO: 4). RT-PCR reactions were performed in triplicate (CFX96 Bio-Rad, Hercules, Calif.). Taqman primers (Life Technologies) were also used.

[4] = tested on: NOX-1 protein in piglet islets; assay: PIC-induced NOX-1 protein in piglet islets; assay type: cell-based; conditions: 1 μM, 18 hours
Procedure: The methods disclosed herein may also be utilized in the preparation of viable xenotransplantable porcine islets and/or the treatment of a mammalian patient (including humans) suffering from diabetes involving the transplantation into the mammal of viable porcine islets capable of producing insulin within the host. Piglet islets are candidates for xenotransplantation of piglet islets with cytokines (PIC; TNF, IL-1, IFN) induced expression of NOX-1 protein. […] Islets were treated for 18 hours. Data supports feedforward regulation of NOX-1 expression and effective uncoupling of this pathway in piglet islets by inhibition of NOX-1 activity.

βTC-3 cells [5] = assay: Glucose-stimulated insulin secretion (GSIS) after PIC; assay type: cell-based, mouse; conditions: βTC-3, 1 mM vs 16 mM glucose, p<0.01
Procedure: Treated islets or cells then were washed with PBS and placed in 1 mL serum-free Kreb-Ringer buffer (115 mM NaCl, 24 mM NaHCO3, 5 mM KCl, 1 mM MgCl2, and 25 mM HEPES) for 1 hour at 370 C. Low (1 mM) or high (16 mM) glucose was added for […] for 30 min. Insulin levels in media were measured by ELISA (Mercodia, Winston Salem, N.C.) as per the manufacturer's instructions.

NOX-1 = biological target: T1, NOX-1 (Homo sapiens, UniProt Q9Y5S8); conditions: cited from earlier work
T1 sequence (Q9Y5S8 1-564): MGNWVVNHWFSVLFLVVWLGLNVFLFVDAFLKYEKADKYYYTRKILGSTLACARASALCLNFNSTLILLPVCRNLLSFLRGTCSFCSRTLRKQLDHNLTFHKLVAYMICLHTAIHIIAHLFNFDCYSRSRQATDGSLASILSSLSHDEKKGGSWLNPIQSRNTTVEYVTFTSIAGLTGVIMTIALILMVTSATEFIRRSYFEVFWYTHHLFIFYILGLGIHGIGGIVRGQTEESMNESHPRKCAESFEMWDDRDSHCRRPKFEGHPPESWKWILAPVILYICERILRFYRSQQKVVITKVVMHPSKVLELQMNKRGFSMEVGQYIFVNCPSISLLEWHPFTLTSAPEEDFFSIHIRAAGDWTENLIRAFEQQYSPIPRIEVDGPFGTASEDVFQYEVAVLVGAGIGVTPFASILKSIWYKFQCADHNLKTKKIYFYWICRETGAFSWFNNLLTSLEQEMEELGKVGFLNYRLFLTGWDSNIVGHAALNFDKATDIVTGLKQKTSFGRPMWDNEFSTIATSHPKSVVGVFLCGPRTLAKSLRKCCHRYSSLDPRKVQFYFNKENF
T1 sequence (P13498 1-195 partner): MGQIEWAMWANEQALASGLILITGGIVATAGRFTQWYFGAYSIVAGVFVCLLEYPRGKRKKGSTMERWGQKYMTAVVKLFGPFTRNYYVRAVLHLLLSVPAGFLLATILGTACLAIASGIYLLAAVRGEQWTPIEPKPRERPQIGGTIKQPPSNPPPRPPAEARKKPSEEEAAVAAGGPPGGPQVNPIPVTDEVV

human colon cancer cells = conditions: cited from earlier work

## CC(=O)c1ccc2c(c1)Nc1ccccc1S2 [ML171, 2-acetylphenothiazine]
INS-1 cells; INS-1, PIC 1 hour
  inhibition of PIC-induced ROS (DCFDA conversion): dose dependent inhibition
INS-1 cells; analogous results for INS-1 and βTC-3
  concentration of maximal protection from PIC-induced ROS: 10 µM
βTC-3 cells [1]
  inhibition of PIC-induced ROS (DCFDA conversion): dose dependent inhibition
[2]
  inhibition of PIC-induced expression of NOX-1 gene: 23%
[3]; 1 μM, 24 hours
  inhibition of PIC-induced expression of NOX-1: 84%
[3]; NCTT-1 100 nM, ML171 1 μM
  induction of gene NOX-1 by PIC: attenuated
[4]
  PIC-induced NOX-1 protein: reduces PIC-induced NOX-1 protein
βTC-3 cells [5]
  glucose-stimulated insulin secretion with PIC: restoring the glucose-sensitive insulin response
NOX-1
  inhibition of NOX-1 (in words): nanomolar inhibitor
  specificity for NOX-1 inhibition over NOX-2 inhibition and other NOX isoforms: greater than 30 fold
Human colon cancer cells
  NOX-1 activity in human colon cancer cells: inhibits NOX-1 activity
